# Measured values from US6737383B1, “Herbicidal oxadiazolidines” (priority 1999, dated 2004).
# Tests used:
# bedstraw = assay: Test B pre/postemergence bedstraw; format: in vivo, Galium aparine; conditions: Preemergence
# How it was run: (§1)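 Herbicidal effect was estimated by eye on a ten-point control scale after plants spent twelve to sixteen days in a greenhouse following soil or foliar treatment. Foliar sprays targeted plants at one to four leaves; all doses were formulated in a non-phytotoxic solvent with surfactant.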
# blackgrass = assay: Test B pre/postemergence blackgrass; format: in vivo, Alopecurus myosuroides
# How it was run: as §1
# surinam grass = assay: Test B pre/postemergence surinam grass; format: in vivo, Brachiaria decumbens
# How it was run: as §1
# cocklebur = assay: Test B pre/postemergence cocklebur; format: in vivo, Xanthium strumarium
# How it was run: as §1
# corn = assay: Test B pre/postemergence corn; format: in vivo, Zea mays
# How it was run: as §1
# giant foxtail = assay: Test B pre/postemergence giant foxtail; format: in vivo, Setaria faberii
# How it was run: as §1
# morningglory = assay: Test B pre/postemergence morningglory; format: in vivo, Ipomoea hederacea
# How it was run: as §1
# pigweed = assay: Test B pre/postemergence pigweed; format: in vivo, Amaranthus retroflexus
# How it was run: as §1
# rape = assay: Test B pre/postemergence rape; format: in vivo, Brassica napus
# How it was run: as §1
# sugar beet = assay: Test B pre/postemergence sugar beet; format: in vivo, Beta vulgaris
# How it was run: as §1
# velvetleaf = assay: Test B pre/postemergence velvetleaf; format: in vivo, Abutilon theophrasti
# How it was run: as §1
# purple nutsedge = assay: Test B pre/postemergence purple nutsedge; format: in vivo, Cyperus rotundus
# How it was run: as §1
# rice = assay: Test B flood test rice; format: in vivo, Oryza sativa
# How it was run: (§2)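 Flood test on plants grown to the 2-leaf stage; treated plants kept in greenhouse twelve to sixteen days, then visually rated against controls on a 0 (no effect) to 10 (complete control) scale.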
# duck salad = assay: Test B flood test duck salad; format: in vivo, Heteranthera limosa
# How it was run: as §2
# bamyardgrass = assay: Test B flood test barnyardgrass; format: in vivo, Echinochloa crus-galli
# How it was run: as §2
# [1] = Postemergence, Rate 62 g/ha, scale 0 to 10, 0 is no effect, 10 is complete control
# [2] = Postemergence, Rate 125 g/ha, scale of 0 to 10 where 0 is no effect and 10 is complete control
# [3] = Postemergence, Rate 250 g/ha, scale of 0 to 10, 0 is no effect, 10 is complete control
# [4] = Postemergence, Rate 500 g/ha, scale of 0 to 10 where 0 is no effect and 10 is complete control
# [5] = Preemergence, Rate 62 g/ha, scale 0 to 10 (0 no effect, 10 complete control)
# [6] = Preemergence, Rate 125 g/ha, scale of 0 to 10 where 0 is no effect and 10 is complete control
# [7] = Preemergence, Rate 250 g/ha, scale 0 to 10 (0 no effect, 10 complete control)
# [8] = Preemergence, Rate 500 g/ha, scale of 0 to 10 where 0 is no effect and 10 is complete control
# [9] = Rate 62 g/ha, flood test species, Pre-emergence, visual evaluation after twelve to sixteen days
# [10] = Rate 125 g/ha, under heading Pre-emergence, flood test species, visual evaluation after twelve to sixteen days
# [11] = Rate 250 g/ha, Pre-emergence (flood test species), scale 0 to 10, 0 is no effect, 10 is complete control
# [12] = Rate 500 g/ha, Pre-emergence section of Table B, 0 to 10 scale (0 no effect, 10 complete control)
smiles,measurement,setting,value
CC(C)N(C(=O)n1oc(=O)n(CSC#N)c1=O)c1ccc(F)cc1 [Compound 618],Bedstraw plant response rating,"bedstraw; Rate 62 g/ha, scale 0 to 10 (0 no effect, 10 complete control)",0
same,Bedstraw plant response rating,"bedstraw; Rate 125 g/ha, scale of 0 to 10 where 0 is no effect and 10 is complete control",0
same,"Plant response rating, Bedstraw","bedstraw; Rate 250 g/ha, scale 0 to 10 (0 no effect, 10 complete control)",0
same,Bedstraw plant response rating,"bedstraw; Rate 500 g/ha, scale of 0 to 10 where 0 is no effect and 10 is complete control",0
same,"Plant response rating, Blackgrass",blackgrass; [1],0
same,"Plant response rating, Blackgrass",blackgrass; [2],0
same,Blackgrass plant response rating,blackgrass; [3],0
same,"Plant response rating, Blackgrass",blackgrass; [4],0
same,Blackgrass plant response rating,blackgrass; [5],0
same,Blackgrass plant response rating,blackgrass; [6],0
same,"Plant response rating, Blackgrass",blackgrass; [7],0
same,Blackgrass plant response rating,blackgrass; [8],0
same,"Plant response rating, B. signalgrass",surinam grass; [1],0
same,"Plant response rating, B. signalgrass",surinam grass; [2],0
same,B. signalgrass plant response rating,surinam grass; [3],0
same,"Plant response rating, B. signalgrass",surinam grass; [4],0
same,B. signalgrass plant response rating,surinam grass; [5],0
same,B. signalgrass plant response rating,surinam grass; [6],0
same,"Plant response rating, B. signalgrass",surinam grass; [7],0
same,B. signalgrass plant response rating,surinam grass; [8],0
same,"Plant response rating, Cocklebur",cocklebur; [1],0
same,Cocklebur plant response rating,cocklebur; [3],0
same,"Plant response rating, Cocklebur",cocklebur; [4],0
same,Cocklebur plant response rating,cocklebur; [5],0
same,Cocklebur plant response rating,cocklebur; [6],0
same,"Plant response rating, Cocklebur",cocklebur; [8],0
same,"Plant response rating, Corn",corn; [1],0
same,"Plant response rating, Corn",corn; [2],0
same,Corn plant response rating,corn; [3],0
same,"Plant response rating, Corn",corn; [4],0
same,Corn plant response rating,corn; [5],0
same,Corn plant response rating,corn; [6],0
same,"Plant response rating, Corn",corn; [7],0
same,"Plant response rating, Corn",corn; [8],0
same,"Plant response rating, Giant foxtail",giant foxtail; [1],0
same,"Plant response rating, Giant foxtail",giant foxtail; [2],0
same,Giant foxtail plant response rating,giant foxtail; [3],0
same,"Plant response rating, Giant foxtail",giant foxtail; [4],0
same,Giant foxtail plant response rating,giant foxtail; [5],2
same,Giant foxtail plant response rating,giant foxtail; [6],2
same,"Plant response rating, Giant foxtail",giant foxtail; [7],2
same,"Plant response rating, Giant foxtail",giant foxtail; [8],0
same,"Plant response rating, Morningglory",morningglory; [1],0
same,"Plant response rating, Morningglory",morningglory; [2],0
same,Morningglory plant response rating,morningglory; [3],0
same,"Plant response rating, Morningglory",morningglory; [4],0
same,Morningglory plant response rating,morningglory; [5],0
same,Morningglory plant response rating,morningglory; [6],0
same,"Plant response rating, Morningglory",morningglory; [7],0
same,"Plant response rating, Morningglory",morningglory; [8],0
same,"Plant response rating, Redroot pigweed",pigweed; [1],0
same,"Plant response rating, Redroot pigweed",pigweed; [2],0
same,Redroot pigweed plant response rating,pigweed; [3],0
same,Redroot pigweed plant response rating,pigweed; [5],0
same,Redroot pigweed plant response rating,pigweed; [6],0
same,"Plant response rating, Redroot pigweed",pigweed; [7],0
same,"Plant response rating, Redroot pigweed",pigweed; [8],0
same,"Plant response rating, Rape",rape; [1],0
same,"Plant response rating, Rape",rape; [2],0
same,Rape plant response rating,rape; [3],0
same,"Plant response rating, Rape",rape; [4],0
same,Rape plant response rating,rape; [5],0
same,Rape plant response rating,rape; [6],0
same,"Plant response rating, Rape",rape; [7],0
same,"Plant response rating, Rape",rape; [8],0
same,"Plant response rating, Sugarbeets",sugar beet; [1],0
same,"Plant response rating, Sugarbeets",sugar beet; [2],0
same,Sugarbeets plant response rating,sugar beet; [3],0
same,Sugarbeets plant response rating,sugar beet; [5],0
same,Sugarbeets plant response rating,sugar beet; [6],0
same,"Plant response rating, Sugarbeets",sugar beet; [7],0
same,"Plant response rating, Sugarbeets",sugar beet; [8],0
same,"Plant response rating, Velvetleaf",velvetleaf; [1],0
same,"Plant response rating, Velvetleaf",velvetleaf; [2],0
same,Velvetleaf plant response rating,velvetleaf; [3],0
same,Velvetleaf plant response rating,velvetleaf; [5],0
same,Velvetleaf plant response rating,velvetleaf; [6],0
same,"Plant response rating, Velvetleaf",velvetleaf; [7],0
same,"Plant response rating, Velvetleaf",velvetleaf; [8],0
same,"Plant response rating, Nutsedge",purple nutsedge; [1],0
same,"Plant response rating, Nutsedge",purple nutsedge; [2],0
same,Nutsedge plant response rating,purple nutsedge; [3],0
same,Nutsedge plant response rating,purple nutsedge; [6],0
same,"Plant response rating, Nutsedge",purple nutsedge; [8],0
same,"Plant response rating, Rice (0 to 10 scale, 0 is no effect, 10 is complete control)",rice; [9],0
same,"Rice plant response rating (0 to 10 scale, 0 is no effect, 10 is complete control)",rice; [10],0
same,Rice plant response rating,rice; [11],0
same,Rice plant response rating,rice; [12],0
same,"Plant response rating, Ducksalad (0 to 10 scale, 0 is no effect, 10 is complete control)",duck salad; [9],0
same,"Ducksalad plant response rating (0 to 10 scale, 0 is no effect, 10 is complete control)",duck salad; [10],0
same,Ducksalad plant response rating,duck salad; [11],0
same,Ducksalad plant response rating,duck salad; [12],0
same,"Plant response rating, Barnyardgrass (0 to 10 scale, 0 is no effect, 10 is complete control)",bamyardgrass; [9],0
same,"Barnyardgrass plant response rating (0 to 10 scale, 0 is no effect, 10 is complete control)",bamyardgrass; [10],0
same,Barnyardgrass plant response rating,bamyardgrass; [11],0
same,Barnyardgrass plant response rating,bamyardgrass; [12],0
